Tests used:
Trypanosoma cruzi [1] = assay: microbe, parasite or virus in culture; assay type: functional, Tulahuen LacZ, Clone C4
L6 = assay: (§1) DNDI: Cytotoxicity against L-6 rat myoblasts from skeletal muscle cells; settings: L6 rat skeletal muscle myoblast cells
Trypanosoma cruzi [2] = assay: microbe, parasite or virus in culture; assay type: functional, organism-based, Tulahuen LacZ, Clone C4
[3] = as §1
[4] = Trypanosoma cruzi, Tulahuen LacZ, Clone C4
[5] = L6 rat skeletal muscle myoblast cells

Row | IC90 (Trypanosoma cruzi [1]) [nM] | IC50 (Trypanosoma cruzi [2]) [nM] | SMILES | IC90 (Trypanosoma cruzi [1]; [4]) [nM] | IC50 (L6) [µM] | IC50 (Trypanosoma cruzi [2]; [4]) [nM] | IC50 [3, 5] [µM] | IC50 ([3]; l6, IC50) [µM]
1 | – | – | OC(c1ccc(Cl)cc1)(c1ccc(Cl)cc1)c1cccnc1 | 27000 | 49 | 90 | – | –
2 | – | – | Cc1ccc(C(O)(c2ccc(Cl)cc2)c2cccnc2)cc1 (configuration not stated) | 60 | 61.2 | 17 | – | –
3 | – | – | OC(c1ccc(Cl)cc1)(c1cccnc1)c1ccc(C(F)(F)F)cc1F (configuration not stated) | 70 | 57.4 | 21 | – | –
4 | – | – | O=S(=O)(c1ccccc1)N1CCN(C(c2ccc(Cl)cc2)c2cccnc2)CC1 (configuration not stated) | 39 | 42.7 | 8.5 | – | –
5 | – | – | OC(c1ccc(C(F)(F)F)cc1)(c1ccc(C(F)(F)F)cc1)c1cccnc1 | 38 | 50.6 | 14.9 | – | –
6 | – | – | Fc1cc(Cl)ccc1C(c1cncnc1)N1CCN(c2ccccc2)CC1 (configuration not stated) | 270 | 62.7 | 78 | – | –
7 | – | – | CC(C)CNC(c1ccc(Cl)cc1)(c1cccnc1)c1ccccc1Cl (configuration not stated) | 1320 | 59.2 | 606 | – | –
8 | – | – | CN(C)c1ccc(C(O)(c2ccc(C(F)(F)F)cc2)c2cccnc2)cc1 (configuration not stated) | 28 | 59.1 | 6 | – | –
9 | – | – | OC(c1cccnc1)(c1ccc(Cl)cc1F)c1ccc(Cl)cc1F | 36 | 56.3 | 16 | – | –
10 | – | – | Fc1cc(Cl)ccc1C(c1cccnc1)N1CCN(c2ncccn2)CC1 (configuration not stated) | 92 | 59 | 26 | – | –
11 | – | – | COc1ccc(C(O)(c2ccc(Cl)cc2)c2cccnc2)cc1 (configuration not stated) | 180 | 68.1 | 40 | – | –
12 | – | – | COc1ccccc1N1CCN(C(c2cncnc2)c2ccc(Cl)cc2F)CC1 (configuration not stated) | 190 | 59.8 | 65 | – | –
13 | 860 | 250 | O=C(C1CCCCC1)N1CCC(NC(c2ccc(C(F)(F)F)cc2)c2cnccn2)CC1 (configuration not stated) | – | 92.4 | – | – | –
14 | – | – | OC(c1ccc(Cl)cc1)(c1ccc(Br)cc1)c1cccnc1 (configuration not stated) | 79 | 57 | 31 | – | –
15 | – | – | CC(C)Oc1ccc(C(O)(c2ccc(C(F)(F)F)cc2)c2cccnc2)cc1 (configuration not stated) | 7 | 47.6 | 3.73 | – | –
16 | – | – | CC(C)Oc1ncc(C(O)(c2cccnc2)c2ccc(Cl)cc2F)cn1 (configuration not stated) | > 10 | 89.5 | 7.7 | – | –
17 | – | – | COc1ccccc1N1CCN(C(c2ccc(Cl)cc2)c2cccnc2)CC1 (configuration not stated) | 42 | 61.1 | 20 | – | –
18 | – | – | CC(C)(C)OC(=O)N1CCN(C(c2cccnc2)c2ccc(Cl)cc2F)CC1 (configuration not stated) | 94 | 43.5 | 20 | – | –
19 | – | – | CC(C)C(=O)Nc1ncc(C(O)(c2ccc(Cl)cc2)c2cccnc2)s1 (configuration not stated) | 88 | 56.6 | 17 | – | –
20 | – | – | OC(c1ccc(Cl)cc1)(c1ccc(Br)cc1)c1cncnc1 (configuration not stated) | 460 | 58.7 | 144 | – | –
21 | – | – | OC(c1ccc(Cl)cc1)(c1cccnc1)c1cccc(Br)c1 (configuration not stated) | 80 | 54.1 | 54 | – | –
22 | – | – | OC(c1ccc(Cl)cc1)(c1ccc(C(F)(F)F)cc1)c1cccnc1 (configuration not stated) | 30 | 56.4 | 8.2 | – | –
23 | – | – | OC(c1ccc(Cl)cc1)(c1cccnc1)c1ccccc1Br (configuration not stated) | 172 | 55.2 | 76 | – | –
24 | – | – | OC(c1ccc(Br)cc1)(c1ccc(C(F)(F)F)cc1)c1cccnc1 (configuration not stated) | 30 | 54.7 | 20 | – | –
25 | – | – | COc1ccccc1N1CCN(C(c2ccc(C(F)(F)F)cc2)c2cnccn2)CC1 (configuration not stated) | 420 | 61.7 | 240 | – | –
26 | – | – | COc1ccccc1N1CCN(C(c2ccc(OC(C)C)cc2)c2cccnc2)CC1 (configuration not stated) | 90 | 77.5 | 28 | – | –
27 | – | – | O=C(c1ccccc1)N1CCN(C(c2cccnc2)c2ccc(Cl)cc2F)CC1 (configuration not stated) | 220 | 68.6 | 70 | – | –

Row | IC90 (Trypanosoma cruzi [1]) [nM] | IC50 (Trypanosoma cruzi [2]) [nM] | SMILES | IC90 (Trypanosoma cruzi [1]; [4]) [nM] | IC50 (L6) [µM] | IC50 (Trypanosoma cruzi [2]; [4]) [nM] | IC50 [3, 5] [µM] | IC50 ([3]; l6, IC50) [µM]
28 | – | – | Clc1ccc(C(c2cccnc2)c2ccccc2Cl)cc1 (configuration not stated) | 2570 | 62.6 | 230 | – | –
29 | – | – | COc1cccc(C(O)(c2ccc(Cl)cc2)c2cccnc2)c1 (configuration not stated) | 315 | 85.6 | 61 | – | –
30 | – | – | OC(c1ccc(Cl)cc1)(c1cccnc1)c1ccc(F)cc1F (configuration not stated) | 29 | 70.2 | 16.4 | – | –
31 | – | – | NC(c1ccc(Cl)cc1)(c1cccnc1)c1ccccc1Cl (configuration not stated) | 5050 | 76 | 90 | – | –
32 | – | – | N#CC(c1ccc(Cl)cc1)(c1cccnc1)c1ccccc1Cl (configuration not stated) | 220 | 56.8 | 50 | – | –
33 | – | – | Cc1ccc(C(O)(c2ccc(OC(C)C)cc2)c2cccnc2)c(F)c1 (configuration not stated) | 13 | 62.6 | 3.2 | – | –
34 | – | – | O=C(C1CCCCC1)N1CCN(C(c2cccnc2)c2ccc(Cl)cc2F)CC1 (configuration not stated) | 200 | 61.7 | 28 | – | –
35 | – | – | Fc1cc(Cl)ccc1C(c1cccnc1)N1CCN(c2ccccc2)CC1 (configuration not stated) | 40 | 57.6 | 18 | – | –
36 | – | – | OC(c1ccc(Cl)cc1)(c1cccnc1)c1ccccc1C(F)(F)F (configuration not stated) | – | 59.2 | 122 | – | –
37 | – | – | CC(C)Oc1ccc(C(O)(c2ccc(OC(C)C)cc2)c2cccnc2)cc1 | 25 | 61.4 | 16 | – | –
38 | – | – | Clc1ccc(C(c2cccnc2)N2CCN(c3ccccc3)CC2)cc1 (configuration not stated) | 84 | 67.3 | 34 | – | –
39 | – | – | OC(c1ccc(C(F)(F)F)cc1)(c1cccnc1)c1cc2ccccc2s1 (configuration not stated) | 110 | 58.7 | 20 | – | –
40 | – | – | CC(C)Oc1ccc(C(O)(c2cccnc2)c2ccc(Cl)cc2F)cc1 (configuration not stated) | 3 | 56 | 1.3 | – | –
41 | 29 | 9.5 | FC(F)(F)c1ccc(C(NC2CCN(c3nccs3)CC2)c2cccnc2)cc1 (configuration not stated) | – | 54.9 | – | – | –
42 | – | – | Clc1ccc(C(c2ccc(Cl)cc2)c2cncnc2)cc1 | 6780 | 70.1 | 682 | – | –
43 | – | – | OC(c1ccc(Cl)cc1)(c1ccc(Cl)cc1)c1cncnc1 | – | 47.7 | 224 | – | –
44 | – | – | OC(c1ccc(Cl)cc1)(c1cccnc1)c1cccc(C(F)(F)F)c1 (configuration not stated) | 162 | 60.4 | 67 | – | –
45 | – | – | COc1nc(C)nc(NC(=O)NS(=O)(=O)c2ccccc2Cl)n1 [CHLORSULFURON] | 100000 | – | 45000 | > 100 | –
46 | – | – | Cc1ccc(-c2c(Cl)nc(C#N)n2S(=O)(=O)N(C)C)cc1 [Cyazofamid] | > 100000 | – | 47200 | 74 | –
47 | – | – | CCCCc1c(C)nc(NCC)[nH]c1=O [ETHIRIMOL] | 100000 | – | > 100000 | > 100 | –
48 | – | – | Cc1occc1C(=O)Nc1ccccc1 [FENFURAM] | > 100000 | – | 75000 | > 100 | –
49 | – | – | CC(C)NC(=O)N1CC(=O)N(c2cc(Cl)cc(Cl)c2)C1=O [IPRODIONE] | > 100000 | – | 49000 | > 100 | –
50 | – | – | CC1CS(=O)(=O)CCN1/N=C/c1ccc([N+](=O)[O-])o1 (configuration not stated) [NIFURTIMOX] | 820 | – | 230 | – | > 100
51 | – | – | OC(c1ccc(F)cc1)(c1cncnc1)c1ccccc1Cl (configuration not stated) [NUARIMOL] | 19500 | – | 1140 | > 100 | –
52 | – | – | CC1=C(C(=O)Nc2ccccc2)S(=O)(=O)CCO1 [OXYCARBOXIN] | > 100000 | – | 65100 | > 100 | –
53 | – | – | COC(=O)N(OC)c1ccccc1COc1ccn(-c2ccc(Cl)cc2)n1 [PYRACLOSTROBIN] | > 10000 | – | 6460 | 43.4 | –

Source: ChEMBL document CHEMBL1862790, “Optimisation of fenarimol series for the treatment of Chagas disease”
